# In paper PMC9413440, “An Iterative Approach Guides Discovery of the FabI Inhibitor Fabimycin, a Late-Stage Antibiotic Candidate with In Vivo Efficacy against Drug-Resistant Gram-Negative Infections” (ACS Central Science, 2022):
# Experiments:
# [1] = tested on: S. aureus USA300 LAC; assay: Neutropenic thigh infection model; format: in vivo, mouse; settings: neutropenic CD-1 mice, MRSA clinical isolate; 5 mg/kg retro-orbital IV 2 and 7 h postinfection; burden at 24 h
# Description: Neutropenic thigh infection model
# Acclimated CD-1 mice (see above) were rendered neutropenic prior to the experiment via cyclophosphamide treatment. […]
# For the gram-positive infection model S. aureus USA300LAC was established intramuscular injection at 2.3 * 10^6 CFU/mouse. Mice were treated with FabI inhibitors at 2 and 7 hours post-infection with burden being assessed at 24 hours post-infection. […]
# The protocol to assess fabimycin’s efficacy in A. baumannii-infected mice (strain: AR-0088) was approved by the IACUC at Pharmacology Discovery Services, Taiwan, Ltd. (protocol number: IM003-01282019). In this study, neutropenic female BALB/c mice 7-8 weeks in age from BioLASCO Taiwan (AAALAC-certified Charles River Licensee) weighing 18 ± 2 grams were used. The mice were rendered neutropenic and inoculated in the same method as used for the pharmacokinetic study. […]
# Animals were euthanized using compressed CO2 gas in a CO2 gas chamber. […] Bacterial burden in the tissue homogenates was determined by performing 10-fold serial dilutions and plating 0.1 mL of each to nutrient agar plates. Colonies were counted after 18 - 24 h incubation. The colony-forming unit value per tissue (CFU/thigh) was calculated. […]
# IM011-12282020). […] Tissues were collected and pathogen burden evaluated by dilution plating technique on nutrient agar plates.
# [2] = tested on: E. coli MG1655; assay: Selection of resistant mutants, mutant prevention concentration; format: cell-based, Escherichia coli; settings: 32x MIC, 0 colonies
# Description: Selection of resistant mutants
# Resistant mutants were generated using the large inoculum method. Briefly, S. aureus 29213, E. coli MG1655, and A. baumannii 19606 (~1 x 1010 CFUs) was plated on 100-mm plates (E. coli and A. baumannii) or 150-mm plates (S. aureus) of MH agar containing either 128, 64, or 32 µg/mL fabimycin (for gram-negatives) or 0.125, 0.062, and 0.031 µg/mL fabimycin (for S. aureus). Plates were incubated at 37 °C for 48 h and counted for the presence of colony forming units.
# Glycerol stocks of selected colonies were made, and resistant colonies confirmed by growing on agar plates containing the same concentration of fabimycin that they were generated at.
# Sequencing of bacterial fabI
# The FabI gene was amplified by PCR. Fabimycin-resistant colonies were picked and diluted in 100 µL sterile, nuclease-free H2O. […] A 10 µL portion of PCR reaction mixture was analyzed by agarose gel electrophoresis to confirm the single 1.4-kilobase pair product. […]
# Candidate drugs were incubated with plasma and parent drug levels were monitored at various time points (generally t=0, 10, 20, 30, and 60 minutes) to determine the drug’s half-life in the presence of the chosen system. […] The supernatant was collected after centrifugation, and the sample analyzed by LC-MS where the percentage of compound remaining is plotted vs time to determine the drug’s half-life. […]
smiles,measurement,setting,value
Cc1c(CN(C)C(=O)/C=C/c2cnc3c(c2)CC[C@H](N)C(=O)N3)oc2ccccc12 [fabimycin],reduction of bacterial burden,[1],significantly greater reduction of bacterial burden relative to Debio-1452
same,mutant prevention concentration (MPC),[2],64 µg/mL
